In data set [1] the test system is mycosis fungoides. The conditions noted are these: human, in vivo.
Data set [2] concerns mycosis fungoides. Description: Therapy history of patient 3 before SD-101 (clinical response, tolerability).

Where two headings read alike, the source gives them in different places.

“SGN-35: agent of the SGN-35 clinical trial in which patient 3 participated”: the “reason the therapy was stopped (toxicity)” value in the data set with mycosis fungoides [1] was “too much toxicity”.
For the molecule `C=C(c1ccc(C(=O)O)cc1)c1cc2c(cc1C)C(C)(C)CCC2(C)C` [Targretin], the “reason the therapy was stopped (toxicity)” value in the data set with mycosis fungoides [2] is listed as “hypertriglyceridemia”. Besides, in the data set with mycosis fungoides [2] (Zolinza with 12 Gy TSEBT, Targretin 300 mg daily, SGN-35 clinical trial), the response to therapy result was “partial response in the skin”.

Values taken from US11547842B2, “Methods for cancer treatment” (The Board of Trustees of the Leland Stanford Junior …, priority 2013, dated 2023).
